Results reported in PubChem BioAssay (NCI).
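How tested: cells in 96-well plates exposed to compound for 48 hours at five concentrations. TGI: concentration producing complete growth inhibition.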

How the values were obtained:
Experiment in all cases: NCI tumour cell line growth inhibition, 48 h
786-0 renal = system: 786-0 renal
A549 NSCLC = system: A549 NSCLC
CAKI-1 renal = system: CAKI-1 renal
COLO 205 colon = system: COLO 205 colon
DU-145 prostate = system: DU-145 prostate
EKVX NSCLC = system: EKVX NSCLC
NCI-H226 lung = system: NCI-H226 lung
NCI-H522 lung = system: NCI-H522 lung
OVCAR-5 ovarian = system: OVCAR-5 ovarian
RPMI-8226 leukemia = system: RPMI-8226 leukemia
SW-620 colon = system: SW-620 colon

SMILES	TGI (786-0 renal) [µM]	TGI (A549 NSCLC) [µM]	TGI (CAKI-1 renal) [µM]	TGI (COLO 205 colon) [µM]	TGI (DU-145 prostate) [µM]	TGI (EKVX NSCLC) [µM]	TGI (NCI-H226 lung) [µM]	TGI (NCI-H522 lung) [µM]	TGI (OVCAR-5 ovarian) [µM]	TGI (RPMI-8226 leukemia) [µM]	TGI (SW-620 colon) [µM]
COc1ccc(/C=N/N=C(\N)NO)c(O)c1	> 10	> 10	9.58	> 10	> 10	> 10	> 10	> 10	> 10	> 10	> 10
CC1=NN2C(=N)/C(=C/c3ccco3)C(=O)N=C2S1	> 100	> 100	> 100	> 100	> 100	> 100	> 100	> 100	> 100	> 100	> 100
Cc1ccc(/C(O)=C/C(=O)C(=O)/C=C(\O)c2ccc(C)cc2C)c(C)c1	4.28	4.16	3.69	3.66	5.43	5.56	4.51	4.53	3.88	4.59	6.88
CCC1(C)N=C(c2cnccn2)NN1c1ccc(Cl)cc1 (stereo unspecified)	> 100	> 100	> 100	> 100	> 100	> 100	> 100	> 100	> 100	> 100	> 100
C=CCCC(=O)CC(O)(C(F)(F)F)C(F)(F)F	> 100	> 100	> 100	> 100	> 100	> 100	> 100	> 100	> 100	> 100	> 100
CC(=O)O[C@H]1CC[C@@]2(C)C(=CC[C@H]3[C@@H]4C[C@H](N5CCCC5)[C@H](OC(C)=O)[C@@]4(C)CC[C@@H]32)C1	> 100	> 100	> 100	> 100	> 100	> 100	> 100	> 100	> 100	> 100	> 100
